Reference: patent US20250388565A1, “ESTROGEN RECEPTOR ALPHA DEGRADERS AND METHODS OF USE THEREOF” (Relay Therapeutics, Inc., priority 2022, published 2025)

target: T1, ERα protein (HiBiT-tagged) in ESR1_HiBiT KI MCF7 cells (Homo sapiens, UniProt P03372); assay: Nano Glo HiBiT Lytic Degradation Assay; type: cell-based; conditions: 6 hours with compound, 14-point dose response 1:3, bell-shape curve fit, half-maximal effect of first Hill model, read-out: MCF7 ESR1 HiBiT - (DC50)
T1 sequence (P03372 1-595): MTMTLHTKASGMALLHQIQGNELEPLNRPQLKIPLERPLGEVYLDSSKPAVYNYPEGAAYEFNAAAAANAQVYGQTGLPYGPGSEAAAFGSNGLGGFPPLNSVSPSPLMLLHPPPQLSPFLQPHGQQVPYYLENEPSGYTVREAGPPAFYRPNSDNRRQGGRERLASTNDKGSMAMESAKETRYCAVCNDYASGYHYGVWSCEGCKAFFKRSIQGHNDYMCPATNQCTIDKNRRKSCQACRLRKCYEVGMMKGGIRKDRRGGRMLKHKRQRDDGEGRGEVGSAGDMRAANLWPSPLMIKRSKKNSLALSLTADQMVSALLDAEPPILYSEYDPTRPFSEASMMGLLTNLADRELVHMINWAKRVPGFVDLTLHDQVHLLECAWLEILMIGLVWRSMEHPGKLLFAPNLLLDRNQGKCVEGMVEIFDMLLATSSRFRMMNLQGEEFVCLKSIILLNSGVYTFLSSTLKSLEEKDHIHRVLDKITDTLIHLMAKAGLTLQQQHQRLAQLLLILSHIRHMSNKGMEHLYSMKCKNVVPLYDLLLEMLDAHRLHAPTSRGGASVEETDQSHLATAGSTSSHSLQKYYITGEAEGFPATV
How it was run: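 Lytic Nano-Glo HiBiT luminescence quantified ERα remaining after a 6 h, 37° C compound exposure of MCF7 cells carrying endogenous HiBiT-tagged ESR1. Dosing used 14 threefold dilutions from a 10 mM DMSO stock (0.1% DMSO final), run in duplicate. Signals were corrected for cell-free background and expressed relative to DMSO, and DC50 came from a bell-shaped curve fit (first Hill model half-maximum).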

Row | SMILES | DC50 [nM]
1 | C[C@]1(C2CCCCC2)CCc2cc(O)ccc2[C@H]1c1ccc(N2CCC(CN3CCN(c4ccc5c(c4)CN([C@H]4CCC(=O)NC4=O)C5=O)CC3)CC2)cc1 [Compound I-238, (S)-3-(5-(4-((1-(4-((1R,2R)-2-cyclohexyl-6-hydroxy-2-methyl-1,2,3,4-tetrahydronaphthalen-1-yl)phenyl)piperidin-4-yl)methyl)piperazin-1-yl)-1-oxoisoindolin-2-yl)piperidine-2,6-dione] | 4
2 | C[C@]1(C2CCCCC2)CCc2cc(O)ccc2[C@@H]1c1ccc(N2CCC(CN3CCN(c4ccc5c(c4)CN([C@H]4CCC(=O)NC4=O)C5=O)CC3)CC2)cc1 [Compound I-239, (S)-3-(5-(4-((1-(4-((1S,2R)-2-cyclohexyl-6-hydroxy-2-methyl-1,2,3,4-tetrahydronaphthalen-1-yl)phenyl)piperidin-4-yl)methyl)piperazin-1-yl)-1-oxoisoindolin-2-yl)piperidine-2,6-dione] | 1990
3 | C[C@@]1(C2CCCCC2)CCc2cc(O)ccc2[C@H]1c1ccc(N2CCC(CN3CCN(c4ccc5c(c4)CN([C@H]4CCC(=O)NC4=O)C5=O)CC3)CC2)cc1 [Compound I-240, (S)-3-(5-(4-((1-(4-((1R,2S)-2-cyclohexyl-6-hydroxy-2-methyl-1,2,3,4-tetrahydronaphthalen-1-yl)phenyl)piperidin-4-yl)methyl)piperazin-1-yl)-1-oxoisoindolin-2-yl)piperidine-2,6-dione] | 3
4 | O=C1CC[C@H](N2Cc3cc(N4CCN(CC5CCN(c6ccc([C@H]7c8ccc(O)cc8CC[C@H]7C78CC9CC(CC(C9)C7)C8)cc6)CC5)CC4)ccc3C2=O)C(=O)N1 [Compound I-241, (S)-3-(5-(4-((1-(4-((1S,2R)-2-((3S,5S,7S)-adamantan-1-yl)-6-hydroxy-1,2,3,4-tetrahydronaphthalen-1-yl)phenyl)piperidin-4-yl)methyl)piperazin-1-yl)-1-oxoisoindolin-2-yl)piperidine-2,6-dione] | 370
5 | O=C1CC[C@H](N2Cc3cc(N4CCN(CC5CCN(c6ccc([C@H]7c8ccc(O)cc8CO[C@H]7C7CCC7)cc6)CC5)CC4)ccc3C2=O)C(=O)N1 [Compound I-244, (S)-3-(5-(4-((1-(4-((3S,4S)-3-cyclobutyl-7-hydroxyisochroman-4-yl)phenyl)piperidin-4-yl)methyl)piperazin-1-yl)-1-oxoisoindolin-2-yl)piperidine-2,6-dione] | 4
6 | O=C1CC[C@H](N2Cc3cc(N4CCN(CC5CCN(c6ccc([C@@H]7c8ccc(O)cc8CO[C@@H]7C7CCC7)cc6)CC5)CC4)ccc3C2=O)C(=O)N1 [Compound I-245, (S)-3-(5-(4-((1-(4-((3R,4R)-3-cyclobutyl-7-hydroxyisochroman-4-yl)phenyl)piperidin-4-yl)methyl)piperazin-1-yl)-1-oxoisoindolin-2-yl)piperidine-2,6-dione] | 0.23
7 | O=C1CC[C@H](N2Cc3cc(N4CCN(CC5CCN(c6ccc([C@H]7c8ccc(O)cc8CO[C@@H]7C7CCCCC7)cc6)CC5)CC4)ccc3C2=O)C(=O)N1 [Compound I-248, (S)-3-(5-(4-((1-(4-((3R,4S)-3-cyclohexyl-7-hydroxyisochroman-4-yl)phenyl)piperidin-4-yl)methyl)piperazin-1-yl)-1-oxoisoindolin-2-yl)piperidine-2,6-dione] | 21
8 | O=C1CC[C@H](N2Cc3cc(N4CCN(CC5CCN(c6ccc([C@@H]7c8ccc(O)cc8CO[C@H]7C7CCCCC7)cc6)CC5)CC4)ccc3C2=O)C(=O)N1 [Compound I-249, (S)-3-(5-(4-((1-(4-((3S,4R)-3-cyclohexyl-7-hydroxyisochroman-4-yl)phenyl)piperidin-4-yl)methyl)piperazin-1-yl)-1-oxoisoindolin-2-yl)piperidine-2,6-dione] | 0.61
9 | O=C1CC[C@H](N2Cc3cc(N4CCN(CC5CCN(c6ccc([C@H]7c8ccc(O)cc8CO[C@H]7C7CCCCC7)cc6)CC5)CC4)ccc3C2=O)C(=O)N1 [Compound I-250, (S)-3-(5-(4-((1-(4-((3S,4S)-3-cyclohexyl-7-hydroxyisochroman-4-yl)phenyl)piperidin-4-yl)methyl)piperazin-1-yl)-1-oxoisoindolin-2-yl)piperidine-2,6-dione] | 64
10 | C[C@H]1O[C@@H](C2CCCCC2)[C@@H](c2ccc(N3CCC(CN4CCN(c5ccc6c(c5)CN([C@H]5CCC(=O)NC5=O)C6=O)CC4)CC3)cc2)c2ccc(O)cc21 [Compound I-251, (S)-3-(5-(4-((1-(4-((1R,3S,4S)-3-cyclohexyl-7-hydroxy-1-methylisochroman-4-yl)phenyl)piperidin-4-yl)methyl)piperazin-1-yl)-1-oxoisoindolin-2-yl)piperidine-2,6-dione] | 44
11 | C[C@]1(C2CCCCC2)OCc2cc(O)ccc2[C@@H]1c1ccc(N2CCC(CN3CCN(c4ccc5c(c4)CN([C@H]4CCC(=O)NC4=O)C5=O)CC3)CC2)cc1 [Compound I-257, (S)-3-(5-(4-((1-(4-((3R,4S)-3-cyclohexyl-7-hydroxy-3-methylisochroman-4-yl)phenyl)piperidin-4-yl)methyl)piperazin-1-yl)-1-oxoisoindolin-2-yl)piperidine-2,6-dione] | 3300
12 | C[C@H]1OC2(CCCCC2)[C@@H](c2ccc(N3CCC(CN4CCN(c5ccc6c(c5)CN([C@H]5CCC(=O)NC5=O)C6=O)CC4)CC3)cc2)c2ccc(O)cc21 [Compound I-268, (S)-3-(5-(4-((1-(4-((1′R,4′S)-7′-hydroxy-1′-methylspiro[cyclohexane-1,3′-isochroman]-4′-yl)phenyl)piperidin-4-yl)methyl)piperazin-1-yl)-1-oxoisoindolin-2-yl)piperidine-2,6-dione] | ≥ 10000

Continued, values first:

Row | DC50 [nM] | SMILES
13 | 1 | C[C@@]1(C2CCCCC2)OCc2cc(O)ccc2[C@H]1c1ccc(N2CCC(CN3CCN(c4ccc5c(c4)CN([C@H]4CCC(=O)NC4=O)C5=O)CC3)CC2)cc1 [Compound I-258, (S)-3-(5-(4-((1-(4-((3S,4R)-3-cyclohexyl-7-hydroxy-3-methylisochroman-4-yl)phenyl)piperidin-4-yl)methyl)piperazin-1-yl)-1-oxoisoindolin-2-yl)piperidine-2,6-dione]
14 | 98 | O=C1CC[C@H](N2Cc3cc(N4CCN(CC5CCN(c6ccc([C@H]7c8ccc(O)cc8CC[C@]78CCc7ccccc78)cc6)CC5)CC4)ccc3C2=O)C(=O)N1 [Compound I-259, (S)-3-(5-(4-((1-(4-((1R,1′R)-6′-hydroxy-2,3,3′,4′-tetrahydro-1′H-spiro[indene-1,2′-naphthalen]-1′-yl)phenyl)piperidin-4-yl)methyl)piperazin-1-yl)-1-oxoisoindolin-2-yl)piperidine-2,6-dione]
15 | 0.75 | O=C1CC[C@H](N2Cc3cc(N4CCN(CC5CCN(c6ccc([C@@H]7c8ccc(O)cc8CC[C@@]78CCc7ccccc78)cc6)CC5)CC4)ccc3C2=O)C(=O)N1 [Compound I-260]
16 | 2 | O=C1CC[C@H](N2Cc3cc(N4CCN(CC5CCN(c6ccc([C@@H]7c8ccc(O)cc8CC[C@]78CCc7ccccc78)cc6)CC5)CC4)ccc3C2=O)C(=O)N1 [Compound I-262, (S)-3-(5-(4-((1-(4-((1R,1′S)-6′-hydroxy-2,3,3′,4′-tetrahydro-1′H-spiro[indene-1,2′-naphthalen]-1′-yl)phenyl)piperidin-4-yl)methyl)piperazin-1-yl)-1-oxoisoindolin-2-yl)piperidine-2,6-dione]
17 | 0.43 | O=C1CC[C@H](N2Cc3cc(N4CCN(CC5CCN(c6ccc([C@@H]7c8ccc(O)cc8CC[C@@]78CCCc7ccccc78)cc6)CC5)CC4)ccc3C2=O)C(=O)N1 [Compound I-264, (S)-3-(5-(4-((1-(4-((1S,1′S)-6′-hydroxy-3,3′,4,4′-tetrahydro-1′H,2H-1,2′-spirobi[naphthalen]′-yl)phenyl)piperidin-4-yl)methyl)piperazin-1-yl)-1-oxoisoindolin-2-yl)piperidine-2,6-dione]
18 | 4 | O=C1CC[C@H](N2Cc3cc(N4CCN(CC5CCN(c6ccc([C@H]7c8ccc(O)cc8CO[C@]78CCc7ccccc78)cc6)CC5)CC4)ccc3C2=O)C(=O)N1 [Compound I-267, (S)-3-(5-(4-((1-(4-((1R,4′S)-7′-hydroxy-2,3-dihydrospiro[indene-1,3′-isochroman]-4′-yl)phenyl)piperidin-4-yl)methyl)piperazin-1-yl)-1-oxoisoindolin-2-yl)piperidine-2,6-dione]
19 | 1 | O=C1CC(N2Cc3cc(N4CCN(CC5CCN(c6ccc([C@@H]7c8ccc(O)cc8CC[C@@H]7c7ccccc7)cc6)CC5)CC4)ccc3C2=O)C(=O)N1 (stereo partly drawn) [Compound I-274, 3-(5-(4-((1-(4-((1R,2S)-6-hydroxy-2-phenyl-1,2,3,4-tetrahydronaphthalen-1-yl)phenyl)piperidin-4-yl)methyl)piperazin-1-yl)-1-oxoisoindolin-2-yl) pyrrolidine-2,5-dione]
